The source of these data is US20230348369A1 (Cytokinetics, Inc., priority 2020, published 2023).

The assay has as its target human NAMPT (Homo sapiens, UniProt P43490). As to the kind of experiment: Human recombinant enzyme assay (NMN fluorescence biochemical assay, activation of NAMPT). The protocol: Compounds described herein were assayed for their ability to stimulate the synthesis of nicotinamide mononucleotide (NMN) by the enzyme NAMPT. The human recombinant enzyme assay measures the activation of the enzyme activity by compounds using recombinant enzyme and substrates in a buffered cell-free system. The assay conditions closely mimic cellular environments. Dose responses were measured using an assay to detect the formation of nicotinamide mono-nucleotide. All experiments were performed in the 384-well format. […] Enzyme reactions were initiated with the addition of 10 μL of a solution containing the substrates. The final assay conditions were as follows: 6 nM human NAMPT, 2.5 mM ATP, 20 μM PRPP and 150 μM nicotinamide in 50 mM HEPES, pH 7.2, 1 mM DTT, 1 mM CHAPS 50 mM NaCl, 100 mM MgCl2. Following an incubation of 60 min at ambient temperature, 10 μL of 20% acetophenone in DMSO was added, followed by 10 μL of 2 M KOH and 40 μL of formic acid. The plates were read for fluorescence (Excitation/Emission=355 nm/460 nm) using an EnVision plate reader after 40 mins of incubation at ambient temperature.

Setting [1] is: Table A, human recombinant NAMPT, NMN formation, 60 min.
[2] abbreviates: Table A, human recombinant NAMPT, NMN formation, 60 min, read-out: EC50 Human.

For orientation: EC50 means the concentration that produces a half-maximal response.

Like-named read-outs stand apart in the source and are kept apart here.

human NAMPT, sequence (P43490 whole entry): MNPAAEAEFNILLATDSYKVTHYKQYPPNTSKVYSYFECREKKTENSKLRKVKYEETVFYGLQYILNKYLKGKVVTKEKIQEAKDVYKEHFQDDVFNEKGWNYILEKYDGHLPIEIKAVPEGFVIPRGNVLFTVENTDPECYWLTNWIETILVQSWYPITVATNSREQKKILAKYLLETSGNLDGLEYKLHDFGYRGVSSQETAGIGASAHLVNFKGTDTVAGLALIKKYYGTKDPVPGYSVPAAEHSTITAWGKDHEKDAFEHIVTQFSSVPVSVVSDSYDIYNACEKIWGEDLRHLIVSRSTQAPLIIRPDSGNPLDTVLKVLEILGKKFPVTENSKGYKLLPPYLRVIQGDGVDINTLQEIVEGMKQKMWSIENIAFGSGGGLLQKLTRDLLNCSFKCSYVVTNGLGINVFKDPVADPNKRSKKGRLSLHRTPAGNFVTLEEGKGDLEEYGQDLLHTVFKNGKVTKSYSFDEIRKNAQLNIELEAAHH

As for `O=C(NCCCCC1CCN(C(=O)Cc2ccncc2)CC1)NCc1ccc(Cl)cc1` [Compound 295, 1-(4-chlorobenzyl)-3-(4-(1-(2-(pyridin-4-yl)acetyl)piperidin-4-yl)butyl)urea], under setting [1], the “AC1.4 Human” value was determined as 1.2 µM. The EC50 under setting [2] amounted to 8.4 µM.
On to `COc1ccc(CNC(=O)NC2CC3(C2)CC(C(=O)NC2CCCc4cc(F)ccc42)C3)cc1` (stereo in doubt) [Compound 98, (S)-N-(6-fluoro-1,2,3,4-tetrahydronaphthalen-1-yl)-6-(3-(4-methoxybenzyl)ureido)spiro[3.3]heptane-2-carboxamide], for which, under setting [1], the “AC1.4 Human” value was found to be 3.0 µM. Further, the 50% effective concentration (EC50) under setting [2] worked out at 7 µM.
In the same order, the values of `Cc1cccc(CC(=O)N2CCC(CCCCNC(=O)NCc3ccc(Cl)cc3)CC2)n1` [Compound 299, 1-(4-chlorobenzyl)-3-(4-(1-(2-(6-methylpyridin-2-yl)acetyl)piperidin-4-yl)butyl)urea] are 1.0 µM and 3.8 µM.
In the same order, the values of `CC(C)(C)OC(=O)N1CCC2(CC1)CC2CNC(=O)NCc1cn[nH]c1` (centres unmarked) [Compound 31, tert-butyl 1-((3-((1H-pyrazol-4-yl)methyl)ureido)methyl)-6-azaspiro[2.5]octane-6-carboxylate] are 3.2 µM and 40.1 µM.
With `Cc1ccccc1CC(=O)N1CCC(CCCCNC(=O)NCc2ccc(Cl)cc2)CC1` [Compound 313, 1-(4-chlorobenzyl)-3-(4-(1-(2-(o-tolyl)acetyl)piperidin-4-yl)butyl)urea], the “AC1.4 Human” value under setting [1] stood at 0.7 µM. In addition, under setting [2], the EC50 is 1.4 µM.
Regarding `Cc1ccc(C(=O)N2CC3(CC(NC(=O)NCc4ccc(C(N)=O)nc4)C3)C2)cc1` [Compound 215, 5-((3-(2-(4-methylbenzoyl)-2-azaspiro[3.3]heptan-6-yl)ureido)methyl)picolinamide], the “AC1.4 Human” value under setting [1] stood at 3.6 µM. Also, under setting [2], the concentration for a half-maximal effect (EC50) turned out to be 30.8 µM.
For `COc1ccc(CNC(=O)NC2CC3(C2)CC(C(=O)N2CCS(=O)(=O)CC2)C3)cc1` (centres unmarked) [Compound 232, 1-(6-(1,1-dioxoidothiomorpholine-4-carbonyl)spiro[3.3]heptan-2-yl)-3-(4-methoxybenzyl)urea], in that order: 3.6 µM and 37.8 µM.
Regarding `Cc1cnccc1C(=O)N1CC[C@]2(C1)C[C@@H](NC(=O)NCc1ccc(Cl)cc1)C2` [Compound 166, 1-(4-chlorobenzyl)-3-((2r,4s)-6-(3-methylisonicotinoyl)-6-azaspiro[3.4]octan-2-yl)urea], the “AC1.4 Human” value under setting [1] is 14.2 µM. Moreover, the EC50 under setting [2] stood at 42.8 µM.
Turning to `COc1ccc(CNC(=O)NC2CC3(C2)CN(S(=O)(=O)C2CC4CCC2C4)C3)cc1` (centres unmarked) [Compound 130, 1-(2-(bicyclo[2.2.1]heptan-2-ylsulfonyl)-2-azaspiro[3.3]heptan-6-yl)-3-(4-methoxybenzyl)urea], the “AC1.4 Human” value under setting [1] was found to be 18.1 µM. Further, under setting [2], the EC50 amounted to 48 µM.
As to `NC(=O)c1ccc(CNC(=O)NC2CC3(C2)CN(C(=O)c2cncc(N4CCCC4)c2)C3)cc1` [Compound 223, 4-((3-(2-(5-(pyrrolidin-1-yl)nicotinoyl)-2-azaspiro[3.3]heptan-6-yl)ureido)methyl)benzamide], under setting [1], the “AC1.4 Human” value is 0.2 µM. Moreover, the half-maximal effective concentration (EC50) under setting [2] was found to be 38.5 µM.
On to `COc1ccc(CNC(=O)NC2CC3(C2)CC(C(=O)N(C)Cc2ccccc2)C3)cc1` (centres unmarked) [Compound 51, N-benzyl-6-(3-(4-methoxybenzyl)ureido)-N-methylspiro[3.3]heptane-2-carboxamide], for which the “AC1.4 Human” value under setting [1] is 1.5 µM. Besides, the EC50 under setting [2] is 53.1 µM.
Take `COc1ccc(CNC(=O)NC2CC3(C2)CN(C(=O)c2ccccc2)C3)cc1` [Compound 141, 1-(2-benzoyl-2-azaspiro[3.3]heptan-6-yl)-3-(4-methoxybenzyl)urea]: under setting [1], the “AC1.4 Human” value was 4.7 µM. For the same compound, under setting [2], the EC50 came out at 49.4 µM.
Consider `O=C(NCCCCC1CCN(C(=O)c2ccncc2)CC1)NCc1ccc(Cl)cc1` [Compound 290, 1-(4-chlorobenzyl)-3-(4-(1-isonicotinoylpiperidin-4-yl)butyl)urea], for which the “AC1.4 Human” value under setting [1] was 1.3 µM. The EC50 under setting [2] is 6.2 µM.
For the compound `COc1ccc(CNC(=O)NC2CC3(C2)CC(c2nc4ccccc4o2)C3)cc1` (centres unmarked) [Compound 327, 1-(6-(benzo[d]oxazol-2-yl)spiro[3.3]heptan-2-yl)-3-(4-methoxybenzyl)urea], the EC50 is 17.4 µM. For the same compound, the “AC1.4 Human” value under setting [1] is 4.1 µM.
As to `O=C(NCc1ccc(Cl)cc1)NC1CC2(CC(Cn3nncc3-c3ccccc3)C2)C1` (centres unmarked) [Compound 242, 1-(4-chlorobenzyl)-3-(6-((5-phenyl-1H-1,2,3-triazol-1-yl)methyl)spiro[3.3]heptan-2-yl)urea], under setting [1], the “AC1.4 Human” value stood at 3.6 µM. Under setting [2], the EC50 worked out at 0.8 µM.
For the compound `COc1ccc(C(=O)N2CC[C@]3(C2)C[C@H](NC(=O)NCc2ccc(Cl)cc2)C3)cc1` [Compound 165, 1-(4-chlorobenzyl)-3-((2s,4r)-6-(4-methoxybenzoyl)-6-azaspiro[3.4]octan-2-yl)urea], under setting [1], the “AC1.4 Human” value is 15.9 µM. Further, the EC50 under setting [2] was 49.4 µM.
For the compound `CC(C1CC2(CC(NC(=O)NCc3ccc(Cl)cc3)C2)C1)N1CCN(C)C(=O)C1` (centres unmarked) [Compound 253, 1-(4-chlorobenzyl)-3-(6-(1-(4-methyl-3-oxopiperazin-1-yl)ethyl)spiro[3.3]heptan-2-yl)urea], the “AC1.4 Human” value under setting [1] came to 3.2 µM. Besides, the EC50 under setting [2] amounted to 5.5 µM.
Take `CS(=O)(=O)C1CC2(CC(NC(=O)NCc3ccc(Cl)cc3)C2)C1` (centres unmarked) [Compound 342, 1-(4-chlorobenzyl)-3-(6-(methylsulfonyl)spiro[3.3]heptan-2-yl)urea]: the “AC1.4 Human” value under setting [1] came out at 33.1 µM. In addition, the concentration for a half-maximal effect (EC50) under setting [2] was determined as 56.1 µM.
On to `O=C1CC(C(=O)N2CCC(CCCCNC(=O)NCc3ccc(Cl)cc3)CC2)CCN1` (centres unmarked) [Compound 301, 1-(4-chlorobenzyl)-3-(4-(1-(2-oxopiperidine-4-carbonyl)piperidin-4-yl)butyl)urea], for which, under setting [1], the “AC1.4 Human” value came to 2.7 µM. The EC50 under setting [2] was 26.3 µM.
As to `COc1ccc(CNC(=O)NC2CC3(C2)CC(C(=O)NC2Cc4ccccc4C2)C3)cc1` (centres unmarked) [Compound 95, N-(2,3-dihydro-1H-inden-2-yl)-6-(3-(4-methoxybenzyl)ureido)spiro[3.3]heptane-2-carboxamide], the “AC1.4 Human” value under setting [1] was determined as 4.3 µM. Further, the EC50 under setting [2] was 13.3 µM.
As for `O=C(NCc1ccc(Cl)cc1)NC1CC2(CC(CNC(=O)C3CCS(=O)(=O)CC3)C2)C1` (centres unmarked) [Compound 243, N-((6-(3-(4-chlorobenzyl)ureido)spiro[3.3]heptan-2-yl)methyl)tetrahydro-2H-thiopyran-4-carboxamide 1,1-dioxide], the “AC1.4 Human” value under setting [1] turned out to be 1.5 µM. Under setting [2], the EC50 was determined as 4.2 µM.
Turning to `Cc1ncccc1CC(=O)N1CCC(CCCCNC(=O)NCc2ccc(Cl)cc2)CC1` [Compound 310, 1-(4-chlorobenzyl)-3-(4-(1-(2-(2-methylpyridin-3-yl)acetyl)piperidin-4-yl)butyl)urea], the “AC1.4 Human” value under setting [1] came to 0.8 µM. Moreover, the EC50 under setting [2] is 4.1 µM.
For the compound `O=C(NCCCCCNC(=O)c1ccccc1F)NCc1ccc(Cl)cc1` [Compound 280, N-(5-(3-(4-chlorobenzyl)ureido)pentyl)-2-fluorobenzamide], the “AC1.4 Human” value under setting [1] amounted to 0.7 µM. Also, the EC50 under setting [2] is 2.6 µM.
Regarding `COc1ccc(CNC(=O)NC2CC3(C2)CN(S(=O)(=O)c2ccccc2Cl)C3)cc1` [Compound 116, 1-(2-((2-chlorophenyl)sulfonyl)-2-azaspiro[3.3]heptan-6-yl)-3-(4-methoxybenzyl)urea], the EC50 worked out at 51.3 µM. In addition, the “AC1.4 Human” value under setting [1] was 8.0 µM.
For the compound `COc1ccc(CNC(=O)NC2CC3(C2)CN(C(=O)OC(C)(C)C)C3)cc1` [Compound 37, tert-butyl 6-(3-(4-methoxybenzyl)ureido)-2-azaspiro[3.3]heptane-2-carboxylate], the “AC1.4 Human” value under setting [1] was found to be 4.2 µM. Under setting [2], the EC50 is 58.9 µM.
Consider `O=C(NCc1ccc(Cl)cc1)NC1CC2(C1)CC(NC(=O)c1ccccc1)C2` (centres unmarked) [Compound 114, N-(6-(3-(4-chlorobenzyl)ureido)spiro[3.3]heptan-2-yl)benzamide], for which the “AC1.4 Human” value under setting [1] is 11.0 µM. Moreover, the EC50 under setting [2] turned out to be 33.1 µM.
Turning to `Cc1ccc(C(=O)NCCCCCNC(=O)NCc2ccc(Cl)cc2)cn1` [Compound 281, N-(5-(3-(4-chlorobenzyl)ureido)pentyl)-6-methylnicotinamide], under setting [1], the “AC1.4 Human” value worked out at 1.3 µM. Moreover, the EC50 under setting [2] stood at 3.9 µM.
As to `CC(C)(C)OC(=O)NC1CC2(CC(NC(=O)NCc3ccc(C(N)=O)cc3)C2)C1` (centres unmarked) [Compound 2, tert-butyl (6-(3-(4-carbamoylbenzyl)ureido)spiro[3.3]heptan-2-yl)carbamate], the concentration for a half-maximal effect (EC50) under setting [2] was 25.9 µM.
With `COc1ccc(CNC(=O)NCCCCCCOc2ccccc2)cc1` [Compound 150, 1-(4-methoxybenzyl)-3-(6-phenoxyhexyl)urea], under setting [1], the “AC1.4 Human” value came out at 2.0 µM. Further, the EC50 under setting [2] stood at 5.3 µM.
Regarding `O=C(NCc1ccc(Cl)cc1)NC1CC2(CC(CC(=O)N3CCC[C@H]3CO)C2)C1` (stereo partly drawn) [Compound 235, (S)-1-(4-chlorobenzyl)-3-(6-(2-(2-(hydroxymethyl)pyrrolidin-1-yl)-2-oxoethyl)spiro[3.3]heptan-2-yl)urea], under setting [1], the “AC1.4 Human” value was found to be 4.1 µM. Further, the EC50 under setting [2] is 7.5 µM.
